Assay results: patent US8946266B2, “Substituted triazole and imidazole derivatives as gamma secretase modulators” (Janssen Pharmaceuticals, Inc., priority 2009, dated 2015)
Where two headings read alike, the source gives them in different places.

Columns and labels:
[1] = tested on: Aβtotal; assay: γ-secretase-modulating activity, Method 2: Aβtotal Alphalisa in supernatant of SKNBE2 cells carrying APP 695-wild type (Table 3b); type: cell-based; details: overnight, read-out: IC50 Aβtot
Procedure, shortened: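 SKNBE2 cells expressing wild-type APP 695 were incubated overnight at 37 °C, 5% CO2 with test compound at a range of concentrations. Aβtotal in supernatant was measured by AlphaLISA sandwich (N-terminal JRF/AβN/25 acceptor, biotinylated mid-region 4G8 donor); IC50 from 4-parameter fit of percent control versus log concentration.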

[2] = tested on: Aβtotal; assay: In vivo efficacy, Method 1: brain soluble Aβtotal lowering 4 h after a single oral dose, ELISA (Table 4a); set-up: species or system mouse; details: dose 30 mg/kg oral dosing
From the text: To determine whether acute administration of an Aβ42 lowering agent would reduce Aβ42 levels in vivo, non-transgenic rodents, e.g. mice or rats were used. Alternatively, two to three month old Tg2576 mice expressing APP695 containing the “Swedish” variant can be used or a transgenic mouse model developed by Dr. Fred Van Leuven (K.U. Leuven, Belgium) and co-workers, with neuron-specific expression of a clinical mutant of the human amyloid precursor protein [V717I] (Moechars et al., 1999 J. Biol. Chem. 274, 6483). Young transgenic mice have high levels of Aβ in the brain but no detectable Aβ deposition. At approximately 6-8 months of age, the transgenic mice start to display spontaneous, progressive accumulation of β-amyloid (Aβ) in the brain, eventually resulting in amyloid plaques within the subiculum, hippocampus and cortex. Animals treated with the Aβ42 lowering agent were examined and compared to those untreated or treated with vehicle and brain levels of soluble Aβ42 and total Aβ would be quantitated by standard techniques, for example, using ELISA. Treatment periods varied from hours (h) to days and were adjusted based on the results of the Aβ42 lowering once a time course of onset of effect could be established.
A typical protocol for measuring Aβ42 lowering in vivo is shown but it is only one of many variations that could be used to optimize the levels of detectable Aβ. For example, Aβ42 lowering compounds were formulated in 20% of Captisol® (a sulfobutyl ether of β-cyclodextrin) in water or 20% hydroxypropyl cyclodextrin. The Aβ42 lowering agents were administered as a single oral dose or by any acceptable route of administration to overnight fasted animals. After 4 h, the animals were sacrificed and Aβ42 levels were analysed.
Blood was collected by decapitation and exsanguinations in EDTA-treated collection tubes. Blood was centrifuged at 1900 g for 10 minutes (min) at 4° C. and the plasma recovered and flash frozen for later analysis. The brain was removed from the cranium and hindbrain. The cerebellum was removed and the left and right hemisphere were separated. The left hemisphere was stored at −18° C. for quantitative analysis of test compound levels. The right hemisphere was rinsed with phosphate-buffered saline (PBS) buffer and immediately frozen on dry ice and stored at −80° C. until homogenization for biochemical assays.
Mouse brains were resuspended in 10 volumes of 0.4% DEA (diethylamine)/50 mM NaCl pH 10 (for non-transgenic animals) or 0.1% 3-[(3-cholamidopropyl)-dimethyl-ammonio]-1-propanesulfonate (CHAPS) in tris buffered saline (TBS) (for transgenic animals) containing protease inhibitors (Roche-11873580001 or 04693159001) per gram of tissue, e.g. for 0.158 g brain, add 1.58 ml of 0.4% DEA. All samples were sonicated for 30 seconds on ice at 20% power output (pulse mode). Homogenates were centrifuged at 221.300×g for 50 min. The resulting high speed supernatants were then transferred to fresh tubes and were optionally further purified before the next step. A portion of the supernatant was neutralized with 10% 0.5 M Tris-HCl and this was used to quantify Aβtotal.
To quantify the amount of Aβ42 in the soluble fraction of the brain homogenates, commercially available Enzyme-Linked-Immunosorbent-Assay (ELISA) kits were used (e.g. Innotest® β-Amyloid(1-42), Innogenetics N.V., Ghent, Belgium). The Aβ42 ELISA was performed using the plate provided with the kit only. Briefly, the standards (a dilution of synthetic Aβ1-42) were prepared in 1.5 ml Eppendorf tube in Ultraculture, with final concentrations ranging from 25000 to 1.5 pg/ml. Samples, standards and blanks (60 μl) were added to the anti-Aβ42-coated plate (the capture antibody selectively recognizes the C-terminal end of the antigen). The plate was allowed to incubate overnight at 4° C. in order to allow formation of the antibody-amyloid complex. […]

Row | Compound | IC50 ([1]; Homo sapiens) | Aβtotal (% Ctrl) _Mean [2] | IC50 [1]
1 | COc1cc(-c2nc(C)c(-c3ccccc3)[nH]2)ccc1-n1cnc(C)c1 [Compound 11] | > 10 µM | −4 % Ctrl | 
2 | COc1cc(-c2nc(-c3ccccc3)n(C)n2)ccc1-n1cnc(C)c1 [Compound 9] | > 10 µM | 0 % Ctrl | 
3 | COc1cc(-c2nc(Nc3ccc(F)cc3C(F)(F)F)n(C)n2)ccc1-n1cnc(C)c1 [Compound 15] |  | 3 % Ctrl | > 10 µM
4 | COc1cc(-c2nc(Nc3cccc(C(F)(F)F)c3)n(C)n2)ccc1-n1cnc(C)c1 [Compound 146] |  | 14 % Ctrl | 4.07 µM
